The assay deals with T1, Autotaxin enzyme (ATX) (Homo sapiens, UniProt Q13822).
T1 construct: purchased Echelon Biosciences, Inc. E-4000
Nature of the assay: In vitro ATX assay (enzymatic ATX inhibition, LPC 14:0 substrate, choline oxidase/HRP absorbance readout). Format: biochemical. To be noted: 0.3 mM LPC 14:0, 37° C., 4 hours, absorbance 555 nm. The essentials:
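Human ATX (10 ng/mL as added) in pH 9.0 Tris buffer with NaCl, MgCl2, CoCl2 and Triton X-100 was preincubated with compound for 15 min at 37 °C. LPC 14:0 (0.3 mM final) was then hydrolysed for 4 h at 37 °C. Released choline was detected by choline oxidase/HRP with 4-AAP/TOOS, read after 15 min RT as absorbance at 555 nm, giving banded IC50 values.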
The IC50 is the concentration that gives 50% inhibition. Turning to `O=C(c1cnc(NCc2cc(OC(F)(F)F)cc(C3CC3)c2)nc1)N1CCC12CCCOC2` (single isomer, unassigned) [Example 122, (2-((3-Cyclopropyl-5-(trifluoromethoxy)benzyl)amino)-pyrimidin-5-yl)(6-oxa-1-azaspiro[3.5]nonan-1-yl)methanone], the 50% inhibitory concentration (IC50) was under 100 nM.
With `CC(Nc1ncc(C(=O)N2CCC23COC3)cn1)c1cccc(OC(F)(F)F)c1` (stereo not drawn) [Example 13] the figure was at least 1000 nM; with `CC(C)(O)C1CCN1C(=O)c1cnc(NCc2cc(OC(F)(F)F)cc(N3CCC3)c2)nc1` (stereo not drawn) [Example 68], under 100 nM; with `COC[C@H]1CCCN1C(=O)c1cnc(NCc2cc(OC(F)(F)F)cc(C3CC3)c2)nc1` [Example 95, (R)-(2-((3-cyclopropyl-5-(trifluoromethxoy)benzyl)ami-no)pyrimidin-5-yl)(2-(methoxymethyl)pyrrolidin-1-yl)methanone], 100 to 1000 nM.
With `O=C(c1cnc(NC2Cc3ccc(Cl)cc3C2)nc1)N1CCC1` (stereo not drawn) [Example 56] the figure was under 100 nM.
With `CC(C)(O)C1CCN1C(=O)c1cnc(N[C@@H]2Cc3ccc(Cl)cc3C2)nc1` (stereo partly drawn) [Example 131, (2-(((R)-5-Chloro-2,3-dihydro-1H-inden-2-yl)amino)pyrimidin-5-yl)(2-(2-hydroxypropan-2-yl)azetidin-1-yl)methanone] the figure was under 100 nM; with `O=C(c1cnc(NCc2cc(OC(F)(F)F)cc(C3CC3)c2)nc1)N1CCC12CN(CC(F)F)C2` [Example 149, (2-((3-Cyclopropyl-5-(trifluoromethoxy)benzyl)amino)pyrimidin-5-yl) (6-(2,2-difluoroethyl)-1,6-diazaspiro[3.3]heptan-1-yl)methanone], under 100 nM; with `CC(=O)N1CC2(CCN2C(=O)c2cnc(NCc3cc(OC(F)(F)F)cc(C4CC4)c3)nc2)C1` [Example 153, 1-(1-(2-((3-Cyclopropyl-5-(trifluoromethoxy)benzyl)amino)pyrimidine-5-carbonyl)-1,6-diazaspiro[3.3]heptan-6-yl)ethanone], under 100 nM.
Compound `CN1CCCC2(CCN2C(=O)c2cnc(NCc3cc(OC(F)(F)F)cc(C4CC4)c3)nc2)C1` (stereo not drawn) [Example 156, (2-((3-Cyclopropyl-5-(trifluoromethoxy)benzyl)amino)pyrimidin-5-yl)(6-methyl-1,6-diazaspiro[3.5]nonan-1-yl)methanone] yielded an IC50 of under 100 nM.
Compound `CC(C)c1cc(CNc2cnc(C(=O)N3CCC34COC4)cn2)cc(OC(F)(F)F)c1` [Example 75, (5-((3-Isopropyl-5-(trifluoromethoxy)benzyl)amino)pyrazin-2-yl)(6-oxa-1-azaspiro[3.3]heptan-1-yl)methanone] yielded a 50% inhibitory concentration (IC50) of under 100 nM.
With `O=C(c1cnc(NCc2cc(OC(F)(F)F)cc(N3CCC3)c2)nc1)N1CCC12COC2` [Example 158, (2-((3-(Azetidin-1-yl)-5-(trifluoromethoxy)benzyl)amino)pyrimidin-5-yl)(6-oxa-1-azaspiro[3.3]heptan-1-yl)methanone] the figure was under 100 nM; with `CC(=O)N1CC2(CCN2C(=O)c2cnc(NC3Cc4ccc(Cl)cc4C3)nc2)C1` (stereo not drawn) [Example 154, 1-(1-(2-((5-Chloro-2,3-dihydro-1H-inden-2-yl)amino)pyrimidine-5-carbonyl)-1,6-diazaspiro[3.3]heptan-6-yl)ethanone], under 100 nM; with `CC(C)c1cc(CNc2ncc(C(=O)N3CCC3C(C)(C)O)cn2)cc(OC(F)(F)F)c1` (stereo not drawn) [Example 64], under 100 nM.
`CN(C)C1CN(C(=O)c2cnc(NCc3cc(OC(F)(F)F)cc(C4CC4)c3)nc2)C1` [Example 110, (2-((3-cyclopropyl-5-(trifluoromethoxy)benzyl)ami-no)pyrimidin-5-yl)(3-(dimethylamino)azetidin-1-yl)methanone]: the half-inhibitory concentration (IC50) was 100 to 1000 nM.
With `CCCc1cc(CNc2ncc(C(=O)N3CCC34COC4)cn2)cc(OC(C)C)c1` [Example 39] the figure was under 100 nM; with `CC(C)(O)[C@@H]1CCN1C(=O)c1cnc(N[C@@H]2Cc3ccc(Cl)cc3C2)nc1` [Example 135], under 100 nM; with `COc1ccc2c(c1)CC(Nc1ncc(C(=O)N3CCC34COC4)cn1)C2` (stereo not drawn) [Example 32], 100 to 1000 nM.
With `O=C(c1cnc(NCc2cc(OC(F)(F)F)cc(C3CC3)c2)nc1)N1CCC1C(F)(F)F` (stereo not drawn) [Example 114, (2-((3-cyclopropyl-5-(trifluoromethoxy)benzyl)ami-no)pyrimidin-5-yl)(2-(trifluoromethyl)azetidin-1-yl)methanone] the figure was 100 to 1000 nM.

The record behind these values is US20210363152A1, “AMINOAZINE AMIDES” (Hoffmann-La Roche Inc., priority 2018, published 2021).
